Biological target: Beta-glucuronidase (Escherichia coli (strain K12), UniProt P05804)
Assay: β-Glucuronidase Activity Assay
Method: The β-glucuronidase assay was performed by the addition of 0.5 μl of compound (or DMSO) to the well of a black 384-well plate followed by the addition of 30 μl of diluted β-glucuronidase enzyme. […] After a 30 minute incubation at room temperature, the reaction was stopped by the addition of 20 ul 1 M Na2CO3. […] Minimum (min) controls were performed using reactions with no enzyme. Maximum (max) controls were performed using no compound. 1% DMSO was maintained in all reactions. Percent inhibition was calculated using RFU data by the following formula: [1−(assay readout-average of min)/(Average of Max-Average of Min)]×100

Chain of Beta-glucuronidase (P05804 whole entry): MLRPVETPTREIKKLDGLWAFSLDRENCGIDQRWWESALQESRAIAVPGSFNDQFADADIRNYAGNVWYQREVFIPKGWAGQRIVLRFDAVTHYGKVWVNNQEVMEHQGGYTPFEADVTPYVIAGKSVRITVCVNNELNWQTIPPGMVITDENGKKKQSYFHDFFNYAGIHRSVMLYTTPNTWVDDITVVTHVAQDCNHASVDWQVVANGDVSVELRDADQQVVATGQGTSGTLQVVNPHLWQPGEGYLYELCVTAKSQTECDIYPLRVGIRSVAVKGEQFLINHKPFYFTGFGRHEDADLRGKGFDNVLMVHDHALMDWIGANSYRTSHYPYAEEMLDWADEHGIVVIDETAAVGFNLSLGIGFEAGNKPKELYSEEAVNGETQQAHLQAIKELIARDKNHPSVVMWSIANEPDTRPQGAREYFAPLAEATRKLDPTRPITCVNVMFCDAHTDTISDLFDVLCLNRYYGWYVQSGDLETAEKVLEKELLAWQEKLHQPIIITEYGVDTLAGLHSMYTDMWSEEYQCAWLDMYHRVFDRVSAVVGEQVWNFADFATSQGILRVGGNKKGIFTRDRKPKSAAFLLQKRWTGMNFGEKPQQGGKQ

SMILES: O=S(=O)(NCc1cccc2ccccc12)c1cc(Cl)c(Oc2ccc3c(c2)OCO3)s1 [US9617239, BRITE-355233]
- IC50: 376 µM

Source: BindingDB's records for patent US9617239 (North Carolina Central University, 2017)
